“And” between values parts separate entries of the source, which are not always exact repeats. Equal values may be shown once.
What was measured:
[1] = test system: normal cell line LX-2; test: MTT cytotoxicity assay, normal cell line LX-2; assay type: cell-based; conditions: for cell inhibition: listed as Comp.5
Protocol: (§1) The cytotoxicity of all compounds against three human tumor cell lines, SF-268 (CNS cancer), MCF-7 (breast cancer), and HepG2 (hepatoma cancer), and normal cell line LX-2 was tested using the MTT assay. […] All cells were seeded into 96-well plates at 5 × 10^4 cells/ml and incubated at 37°C under a 5% CO2 atmosphere for 24 h. Then, the tested compounds were added. After 72 h, MTT solution was added into each well, which was further incubated. The cell-free supernatant was removed and formazan crystals were subsequently dissolved in DMSO. Optical density (OD) was recorded at 490 nm on a microplate reader to calculate the IC50 values.

[2] = test system: SF-268 (CNS cancer); test: MTT cytotoxicity assay, SF-268 cells; assay type: cell-based, human; conditions: for cell inhibition: SF268 cells, listed as Comp.5
Protocol: (§2) The cytotoxicity of all compounds against three human tumor cell lines, SF-268 (CNS cancer), MCF-7 (breast cancer), and HepG2 (hepatoma cancer), and normal cell line LX-2 was tested using the MTT assay. Adriamycin was used as a positive control. All cells were seeded into 96-well plates at 5 × 10^4 cells/ml and incubated at 37°C under a 5% CO2 atmosphere for 24 h. Then, the tested compounds were added. After 72 h, MTT solution was added into each well, which was further incubated. The cell-free supernatant was removed and formazan crystals were subsequently dissolved in DMSO. Optical density (OD) was recorded at 490 nm on a microplate reader to calculate the IC50 values.

[3] = test system: HepG2 (hepatoma cancer); test: MTT cytotoxicity assay, HepG2 cells; assay type: cell-based, human; conditions: for cell inhibition: listed as Comp.5
Protocol: as §2

[4] = test system: MCF-7 (breast cancer); test: MTT cytotoxicity assay, MCF-7 cells; assay type: cell-based, human; conditions: for cell inhibition: listed as Comp.5
Protocol: as §1

[5] = LX-2, c 1.00 μM, three replicates
[6] = LX-2, c 2.00 μM, three replicates
[7] = LX-2, c 4.00 μM, three replicates
[8] = LX-2, c 8.00 μM, three replicates
[9] = LX-2, c 16.00 μM, three replicates
[10] = LX-2, c 32.00 μM, three replicates
[11] = LX-2, c 64.00 μM, three replicates
[12] = LX-2, c 128.00 μM, three replicates

In the case of `CC(C)C12CC1C(C)(O)CC2=O` (centres unmarked) [compound 5, diaportone C], the inhibition at 1 µM [1, 5] is reported as 11.1%, the cell inhibition [1, 5] is reported as 11.45% and 12.45% and the inhibition at 2 µM [1, 6] is reported as 13.5%. The cell inhibition [1, 6] was 13.52% and 12.56%, the inhibition at 4 µM [1, 7] was 23.6% and the cell inhibition [1, 7] was 24.13% and 24.41%. For the same molecule, the inhibition at 8 µM [1, 8] was 30.1%, the cell inhibition [1, 8] was 32.44% and 30.6% and the inhibition at 16 µM [1, 9] was 31.7%. For the same molecule, the cell inhibition [1, 9] was 33.08% and 32.3%, the inhibition at 32 µM [1, 10] was 46.6% and the cell inhibition [1, 10] was 43.56% and 46.07%. The inhibition at 64 µM [1, 11] was 70.3%, the cell inhibition [1, 11] was 71.68% and 70.2% and the inhibition at 128 µM [1, 12] was 89.2%. The cell inhibition [1, 12] was 89.22% and 90.45%, the IC50 ([1]; MTT, 72 h, mean ± SD (n = 3)) was greater than 40 µM and the inhibition at 1 µM ([2]; Homo sapiens, SF-268, SF268 cells, c 1.00 μM, triplicate values, read-out: cell inhibition) was 6.47%. The inhibition at 2 µM ([2]; Homo sapiens, SF-268, SF268 cells, c 2.00 μM, triplicate values, read-out: cell inhibition) was 15.7%, the inhibition at 4 µM ([2]; Homo sapiens, SF-268, SF268 cells, c 4.00 μM, triplicate values, read-out: cell inhibition) was 22.9% and the inhibition at 8 µM ([2]; Homo sapiens, SF-268, SF268 cells, c 8.00 μM, triplicate values, read-out: cell inhibition) was 22.1%. For the same molecule, the inhibition at 16 µM ([2]; Homo sapiens, SF-268, SF268 cells, c 16.00 μM, triplicate values, read-out: cell inhibition) was 27.1%, the inhibition at 32 µM ([2]; Homo sapiens, SF-268, SF268 cells, c 32.00 μM, triplicate values, read-out: cell inhibition) was 31.9% and the inhibition at 64 µM ([2]; Homo sapiens, SF-268, SF268 cells, c 64.00 μM, triplicate values, read-out: cell inhibition) was 67.2%. The inhibition at 128 µM ([2]; Homo sapiens, SF-268, SF268 cells, c 128.00 μM, triplicate values, read-out: cell inhibition) was 72.8%, the IC50 ([2]; Homo sapiens, SF-268, MTT, 72 h, mean ± SD (n = 3), read-out: IC50 SF268) was greater than 40 µM and the cell inhibition ([2]; c 1.00 μM, triplicate values) was 6.8% and 6.81%. For the same molecule, the cell inhibition ([2]; c 2.00 μM, triplicate values) was 13.52% and 13.37%, the cell inhibition ([2]; c 4.00 μM, triplicate values) was 23.4% and 24.41% and the cell inhibition ([2]; c 8.00 μM, triplicate values) was 23.23% and 26.17%. The cell inhibition ([2]; c 16.00 μM, triplicate values) was 25.97% and 27.9%, the cell inhibition ([2]; c 32.00 μM, triplicate values) was 33.15% and 30.82% and the cell inhibition ([2]; c 64.00 μM, triplicate values) was 67.13% and 67.17%. For the same molecule, the cell inhibition ([2]; c 128.00 μM, triplicate values) was 70.54% and 72.29%, the cell inhibition ([3]; HepG2, c 1.00 μM, three replicates) was 3.46% and 5.11% and the cell inhibition ([3]; HepG2, c 2.00 μM, three replicates) was 7.29% and 7.31%. For the same molecule, the cell inhibition ([3]; HepG2, c 4.00 μM, three replicates) was 9.34% and 11.19%, the cell inhibition ([3]; HepG2, c 8.00 μM, three replicates) was 16.9% and 15.77% and the cell inhibition ([3]; HepG2, c 16.00 μM, three replicates) was 25.3% and 27.11%. For the same molecule, the cell inhibition ([3]; HepG2, c 32.00 μM, three replicates) was 44.75% and 45.2%, the cell inhibition ([3]; HepG2, c 64.00 μM, three replicates) was 77.47% and 75.51% and the cell inhibition ([3]; HepG2, c 128.00 μM, three replicates) was 83.13% and 82.98%. It also gave an inhibition at 1 µM ([3]; Homo sapiens, HepG2, HepG2, c 1.00 μM, three replicates, read-out: cell inhibition) of 3.33%, an inhibition at 2 µM ([3]; Homo sapiens, HepG2, HepG2, c 2.00 μM, three replicates, read-out: cell inhibition) of 7.36% and an inhibition at 4 µM ([3]; Homo sapiens, HepG2, HepG2, c 4.00 μM, three replicates, read-out: cell inhibition) of 9.89%. It also gave an inhibition at 8 µM ([3]; Homo sapiens, HepG2, HepG2, c 8.00 μM, three replicates, read-out: cell inhibition) of 16.4%, an inhibition at 16 µM ([3]; Homo sapiens, HepG2, HepG2, c 16.00 μM, three replicates, read-out: cell inhibition) of 27.6% and an inhibition at 32 µM ([3]; Homo sapiens, HepG2, HepG2, c 32.00 μM, three replicates, read-out: cell inhibition) of 46.2%. The inhibition at 64 µM ([3]; Homo sapiens, HepG2, HepG2, c 64.00 μM, three replicates, read-out: cell inhibition) was 77.2%, the inhibition at 128 µM ([3]; Homo sapiens, HepG2, HepG2, c 128.00 μM, three replicates, read-out: cell inhibition) was 81.1% and the IC50 ([3]; Homo sapiens, HepG2, MTT, 72 h, mean ± SD (n = 3)) was greater than 40 µM. It also gave an inhibition at 1 µM ([4]; Homo sapiens, MCF7, MCF-7, c 1.00 μM, three replicates, read-out: cell inhibition) of 8.13%, an inhibition at 2 µM ([4]; Homo sapiens, MCF7, MCF-7, c 2.00 μM, three replicates, read-out: cell inhibition) of 15.1% and an inhibition at 4 µM ([4]; Homo sapiens, MCF7, MCF-7, c 4.00 μM, three replicates, read-out: cell inhibition) of 21.1%. The inhibition at 8 µM ([4]; Homo sapiens, MCF7, MCF-7, c 8.00 μM, three replicates, read-out: cell inhibition) was 28.2%, the inhibition at 16 µM ([4]; Homo sapiens, MCF7, MCF-7, c 16.00 μM, three replicates, read-out: cell inhibition) was 33.4% and the inhibition at 32 µM ([4]; Homo sapiens, MCF7, MCF-7, c 32.00 μM, three replicates, read-out: cell inhibition) was 41.7%. It also gave an inhibition at 64 µM ([4]; Homo sapiens, MCF7, MCF-7, c 64.00 μM, three replicates, read-out: cell inhibition) of 54.1%, an inhibition at 128 µM ([4]; Homo sapiens, MCF7, MCF-7, c 128.00 μM, three replicates, read-out: cell inhibition) of 70.1% and an IC50 ([4]; Homo sapiens, MCF7, MTT, 72 h, mean ± SD (n = 3)) greater than 40 µM. For the same molecule, the cell inhibition ([4]; MCF-7, c 1.00 μM, three replicates) was 8.16% and 9.09%, the cell inhibition ([4]; MCF-7, c 2.00 μM, three replicates) was 16.13% and 15.25% and the cell inhibition ([4]; MCF-7, c 4.00 μM, three replicates) was 22.04% and 21.31%. For the same molecule, the cell inhibition ([4]; MCF-7, c 8.00 μM, three replicates) was 28.45% and 29.1%, the cell inhibition ([4]; MCF-7, c 16.00 μM, three replicates) was 33.57% and 33.06% and the cell inhibition ([4]; MCF-7, c 32.00 μM, three replicates) was 42.15% and 41.31%. For the same molecule, the cell inhibition ([4]; MCF-7, c 64.00 μM, three replicates) was 53.35% and 53.16% and the cell inhibition ([4]; MCF-7, c 128.00 μM, three replicates) was 71.36% and 73.18%.

— publication PMC8640094, “Diaportones A–C: Three New Metabolites From Endophytic Fungus Diaporthe foeniculina BZM-15” (Frontiers in Chemistry, 2021)
